Where no end group is shown, it is not given here.
Key:
[1] = Blood pressure of rats under anesthesia; type: in vivo, Male Wistar rats; conditions: 10 nmols/kg intravenous, 8 rats, average + standard error
Method: The activity of the synthetic SENR ligand polypeptides ① and ② (SEQ ID NO:7 and SEQ ID NO:8) in various concentrations, which were synthesized in EXAMPLES 12 and 13, on blood pressure of rats under anesthesia was measured by the following method. Male Wistar rats of 8 to 9 weeks old (purchased from Nippon Crea Co.) were anesthetized with Nembutal injection (Dai-Nippon Pharmaceutical Co., 50 mg/ml sodium pentobarbital, 50 mg/kg i.p.). A catheter (SP-55) for blood pressure measurement connected with a transducer was inserted into the left carotid artery and a catheter (SP-35) for intravenous injection into the left femoral vein. The synthetic ligand was dissolved in physiological saline containing 0.05% BSA, which was cannulated through the left femoral vein in a dose of 1, 10 or 100 nmol/kg. The blood pressure was continuously recorded by means of a polygraph (manufactured by NEC Sanei Co.). […] The hypotensive action was shown by the average blood pressure reduced by administration of SENR ligand to the average blood pressure prior to administration. […]

[2] = system: rat SENR; experiment: GTPγS binding to rat SENR-expression CHO cell membrane fraction; type: biochemical; conditions: peptide in various concentrations, 25°C 1 hour
Method: The [^35S] -guanosine 5'-(γ-thio)triphosphate binding promoting activity of bovine SENR ligand (SEQ ID NO:21) on SENR-expression CHO cell membrane fraction was measured by the following method. First, preparation of membrane fraction is described. To 1 x 10^8 of CHO/SENR cells was added 10 ml of a homogenate buffer (10 mM NaHCO3, 5 mM EDTA, 0.5 mM PMSF, 1 µg/ml pepstatin, 4 µg/ml E64, 20 µg/ml leupeptin), which was homogenized by using Polytron (12,000 rpm, 1 min.). The cell homogenate was subjected to centrifugation (1,000 g, 15 mins.) to give the supernatant. Next, the supernatant was subjected to ultracentrifugation (Beckman type 30 rotor, 30,000 rpm, 1 hour). The resulting precipitate was used as a rat SENR-expression CHO cell membrane.
The GTPγS binding activity was measured as follows. The rat SENR-expression CHO cell membrane was diluted with a buffer for membrane dilution (50 mM Tris-hydrochloride buffer (pH 7.4), 5 mM MgCl2, 150 mM NaCl, 1 µM GDP) to prepare a cell membrane fraction solution for assay having a protein concentration of 30 µg/ml. […] After washing twice with 1.5 ml of a buffer for filter washing (50 mM Tris-hydrochloride buffer (pH 7.4), 5 mM MgCl2, 1 mM EDTA, 0.1% BSA), radioactivity of the filter was measured using a liquid scintillation counter.

[3] = system: rat SENR; experiment: cAMP synthesis suppression in rat SENR-expression CHO cells; type: cell-based; conditions: forskolin
Method: A method for the cAMP synthesis suppressing activity of the bovine SENR ligand (SEQ ID NO:21) synthesized in EXAMPLE 14 on rat SENR-expression CHO cells is shown below. The CHO/SENR cells were inoculated on a 24-well plate in 5 × 10^4 cells/well followed by cultivation for 48 hours. The cells were then washed with Hanks' buffer (pH 7.4) containing 0.2 mM 3-isobutyl-methylxanthine, 0.05% BSA and 20 mM HEPES (hereinafter Hanks' buffer (pH 7.4) containing 0.2 mM 3-isobutyl-methylxanthine, 0.05% BSA and 20 mM HEPES is referred to as a reaction buffer). Thereafter, 0.5 ml of the reaction buffer was added to the system, which was kept in the medium for 30 minutes. The reaction buffer was removed and 0.25 ml of a fresh reaction buffer was added to the cells. Then, 0.25 ml of the reaction buffer containing various amounts of bovine SENR ligand and 2 µM forskolin was added to the cells followed by reacting at 37°C for 24 minutes. By adding 100 µl of 20% perchloric acid, the reaction was terminated. The reaction mixture was then allowed to stand on ice for an hour to extract intracellular CAMP. The amount of cAMP in the extract was measured using cAMP EIA kit (Amersham Pharmacia Biotech).

[4] = target: rat SENR (sensory epithelium neuropeptide-like receptor) (rat); experiment: cell-based or functional assay
[5] = target: human SENR (human); experiment: cell-based or functional assay

## GPPSECFWKYCV (cysteine pairing not given here) [Bovine SENR ligand, Cys 6th and 11th form intramolecular disulfide bond]
[1]
  Average blood pressure decreased: 35.7 ± 7.0 mmHg
[2]
  amount of [^35S]-guanosine 5'-(γ-thio)triphosphate bound to the membrane fraction: dose-dependently increased
[3]; increasing peptide concentration
  amount of intracellular cAMP: decreased dose dependently
[3]; peptide 0.3 nM, 37°C 24 minutes
  amount of intracellular cAMP: obviously reduced

## bovine SENR ligand (peptide)
[4]
  cAMP synthesis suppressing activity (forskolin-stimulated; concentration at which an obvious reduction was seen): 0.3 nM

## human SENR ligand (human urotensin II) (peptide)
[5]
  cAMP synthesis suppressing activity (forskolin-stimulated; concentration at which an obvious reduction was seen): 0.3 nM

From EP1136503A1, “NOVEL PHYSIOLOGICALLY ACTIVE SUBSTANCE, PROCESS FOR PRODUCING THE SAME AND UTILIZATION THEREOF” (Takeda Chemical Industries, Ltd., priority 1998, dated 2001)
